We go through twelve compounds from patent US8835615B2, “2′-fluorine-4′-substituted-nucleoside analogues, preparation methods and uses thereof” (priority 2007, dated 2014).

By CC50 is commonly meant the concentration giving 50% cytotoxicity. A word on the IC50: it is the concentration that gives 50% inhibition. In general, EC50 refers to the midpoint of the concentration-response curve. Higher therefore signals weaker potency.

A short description of data set [1]: Cytotoxicity in MT-4 cells, MTT method. The note with it: human. In general terms: Tetrazolium dyes change colour on reduction, which living cells bring about.
A further data set relates to HIV-1 IIIB. Description: Anti-HIV-1 activity in MT-4 cell culture (P24 antigen). In kind it is cell-based.
The next data set concerns VSVG/HIV-luc. Description: Pharmacological model of wild type HIV-1 replication (VSVG/HIV-luc, Cell 293). In kind it is cell-based.
A short description of data set [2]: Solubility of the drugs to be tested. Type of data set: physicochemical. The procedure: During the test, the solution was dissolved by DMSO to suitable concentration, diluted by culture medium, and immediately added into cell culture.
Another data set deals with Hep G2.2.15. Description: Cytotoxicity on Hep G2.2.15 (MTT). Type of data set: cell-based, human. The note with it: for Cell Survival Rate: MTT.
A further data set concerns HBV DNA. Description: HBV DNA in Hep G2.2.15 cell supernatant, fluorescent quantitative PCR. In kind it is cell-based, hepatitis B virus. The note with it: for HBV DNA copy number / Inhibition ratio (%): cell supernatant.
The next data set concerns HCV. Put plainly: Anti-HCV activity, HCV-RNA by automatic PCR ELISA. In kind it is cell-based. On the procedure: The HCV replication cells (Avva.5) were cultivated in the Dulbecco's improved Eagle medium containing 10% fetal calf serum and 1 mg/ml G418. 293-Sip-L cells were cultivated in the Dulbecco's improved Eagle medium containing 10% fetal calf serum, 250 μg/ml G418 and 150 μg/ml hygromycin B.
Using Petri culture dish in a diameter of 60 mm, the cells were cultivated in a positive culture medium containing 100 μl of HCV for 12 hours. Then, the cells were cultivated in the fresh medium containing on HCV and the medium was replaced once everyday. When detecting HCV-RNA 7 days after the cells have been infected with HCV, it is necessary to clean the cells using the Dulbecco's improved Eagle medium in trypsinization and centrifugation methods. The upper layer part cleaned for the second time (used for comparison) and the washed cells were collected for RNA extraction and RT-PCR detection. β-actin mRNA was simultaneously determined for the purpose of comparison.
The quantitative determination on HCV-RNA is performed in automatic PCR Enzyme-linked immunosorbent assay (ELISA). (Edition 2.0, Roche Diagnostics, Branchburg, N.J.)
HCV-NA level was determined in automatic PCR ELISA.
A general note: In an ELISA, binding on a coated surface is turned into a signal by an enzyme label.

Where [3] appears, read: MT-4 cells infected with HIV-1 IIIB.
Setting [4] is: Human immunodeficiency virus 1, MT4, 96 h, HIV-1 IIIB in MT-4 cell culture, 4 days, read-out: IC50.
[5] abbreviates: Human immunodeficiency virus 1, VSVG/HIV-luc, Cell 293, read-out: Remarks IC50.
Setting [6] is: Human immunodeficiency virus 1, IIIB, MT4, 96 h.
Where [7] appears, read: 0.06 μg/ml in the cell supernatant.
The mark [8] stands for this setting: 0.6 μg/ml in the cell supernatant.
[9] abbreviates: 6 μg/ml in the cell supernatant.

Converted amounts (≈) assume the structure as drawn. Like-named read-outs stand apart in the source and are kept apart here.

`Cc1cn([C@H]2C[C@H](N=[N+]=[N-])[C@@H](CO)O2)c(=O)[nH]c1=O` [AZT, Zidovudine, reference compound]: the CC50 at 4 days in data set [1] (setting [3]) and in data set [1] (uninfected MT-4 cells) was above 0.625 µg/mL throughout. In addition, in the data set with HIV-1 IIIB (setting [4]), the IC50 was found to be 0.182 ng/mL (≈ 0.000681 µM).

Turning to `C#CC1(CO)OC(n2ccc(N)nc2=O)C(F)C1O` (stereo not shown) [Compound 1], the IC50 came to 0.5 µM in the data set on VSVG/HIV-luc (setting [5]) and 101 ng/mL (≈ 0.375 µM) with HIV-1 IIIB (setting [4]). The CC50 at 4 days turned out to be 43.6 µg/mL (≈ 162 µM) in data set [1] (setting [3]) and 40.9 µg/mL (≈ 152 µM) in data set [1] (uninfected MT-4 cells). Further, the “Solubility in DMSO” value in data set [2] is listed as “DMSO-soluble”. In addition, in data set [2], the Solubility in water result was “water-insoluble”.

The compound `CC1(CO)OC(n2ccc(O)nc2=O)C(F)C1O` (stereo not shown) [Compound 9] gave a CC50 at 4 days in data set [1] (setting [3]) of 31.2 µg/mL (≈ 120 µM). The compound also had a CC50 at 4 days in data set [1] (uninfected MT-4 cells) of 30.1 µg/mL (≈ 115 µM). For the same compound, in data set [2], the “Solubility in DMSO” value is “DMSO-soluble” and the Solubility in water entry is listed as “water-insoluble”. This compound displayed an IC50 in the data set with HIV-1 IIIB (setting [6]) of 162 ng/mL (≈ 0.623 µM).

As for `[N-]=[N+]=NC1(CO)OC(n2ccc(N)nc2=O)C(F)C1O` (stereo not shown) [Compound 15], the IC50 in the data set on VSVG/HIV-luc (Human immunodeficiency virus 1, read-out: Remarks IC50) was 0.0015 µM; in the data set on HIV-1 IIIB (setting [6]) it was 0.01 ng/mL (≈ 3.49e-05 µM). The CC50 at 4 days in data set [1] (setting [3]) and in data set [1] (uninfected MT-4 cells) was above 100 µg/mL in each case. For the same compound, the “Solubility in DMSO” value in data set [2] was “DMSO-soluble”. In data set [2], the Solubility in water entry is listed as “water-insoluble”. Moreover, the “Cell Survival Rate” value is given as 98.7% in the data set with Hep G2.2.15 (8 μg/ml), 96.7% with Hep G2.2.15 (40 μg/ml), 85.5% with Hep G2.2.15 (200 μg/ml) and 82.6% in the data set on Hep G2.2.15 (1000 μg/ml). For the same compound, the “Toxicity (in words)” value with Hep G2.2.15 (in vitro tests) was “less toxicity”. The “HBV DNA copy number” value in the data set on HBV DNA (0.016 μg/L) was 18.9 *10^5; in the data set on HBV DNA (0.08 μg/L) it was 13.5 *10^5; in the data set on HBV DNA (0.4 μg/L) it was 10.3 *10^5; in the data set on HBV DNA (2 μg/L) it was 5.21 *10^5. Also, the “Inhibition ratio (%)” value in the data set on HBV DNA (0.016 μg/L) is 41.0%; in the data set with HBV DNA (0.08 μg/L), 57.8%; in the data set on HBV DNA (0.4 μg/L) it was 67.8%; with HBV DNA (2 μg/L) it was 83.7%. The same compound registered an EC50 in the data set with HBV DNA (Hepatitis B virus, HepG2.2.15, HBV DNA in Hep G2.2.15 supernatant) of 0.00019 µg/mL (≈ 0.000664 µM). Moreover, in the data set with HBV DNA (after administration, in vitro), the “Effect on HBV DNA copy number (in words)” value was “significantly reduce”.

As to `[N-]=[N+]=NC1(CO)OC(n2ccc(O)nc2=O)C(F)C1O` (stereo not shown) [Compound 17], the “Inhibition effect Test 1 (HCV-RNA level)” value with HCV (setting [7]) is recorded as 4.9 × 10^2; in the data set with HCV (setting [8]), 0.92 × 10^2; in the data set on HCV (setting [9]) it was 1.1 × 10^2. Besides, the “Inhibition effect Test 2 (HCV-RNA level)” value with HCV (setting [7]) was 4.1 × 10^2; in the data set with HCV (setting [8]), 0.78 × 10^2; with HCV (setting [9]), 0.81 × 10^2. Also, in the data set with HCV (6 μg/ml, 0.6 μg/ml or 0.06 μg/ml), the “Inhibition effect on HCV (in words)” value was “relatively strong inhibition effect”. Also, the figures for the “HBV DNA copy number” value in the data set on HBV DNA (100 μg/L), in the data set on HBV DNA (500 μg/L) and in the data set with HBV DNA (1000 μg/L) were 19.2 *10^5, 14.3 *10^5 and 10.2 *10^5, respectively. For the same compound, the “Inhibition ratio (%)” value in the data set with HBV DNA (100 μg/L) turned out to be 40.6%; with HBV DNA (500 μg/L), 52.2%; in the data set with HBV DNA (1000 μg/L), 67.9%.

Turning to `C#CC1(CO)OC(n2cnc3c(F)ncnc32)C(F)C1O` (stereo not shown) [Compound 19], the IC50 is 1 µM with VSVG/HIV-luc (setting [5]) and 90 ng/mL (≈ 0.304 µM) in the data set on HIV-1 IIIB (setting [6]). For the same compound, the CC50 at 4 days in data set [1] (setting [3]) was 43.8 µg/mL (≈ 148 µM); in data set [1] (uninfected MT-4 cells), 39.8 µg/mL (≈ 134 µM). The “Solubility in DMSO” value in data set [2] is on record as “DMSO-soluble”. Moreover, the Solubility in water entry in data set [2] is recorded as “water-insoluble”.

As to `CC1(CO)OC(n2cnc3c(O)ncnc32)C(F)C1O` (stereo not shown) [Compound 36], the CC50 at 4 days in data set [1] (setting [3]) amounted to 35.1 µg/mL (≈ 124 µM). Further, in data set [1] (uninfected MT-4 cells), the CC50 at 4 days stood at 37.5 µg/mL (≈ 132 µM). Moreover, in data set [2], the “Solubility in DMSO” value is “DMSO-soluble” and the Solubility in water entry is listed as “water-insoluble”. The IC50 in the data set with HIV-1 IIIB (setting [4]) was determined as 127 ng/mL (≈ 0.447 µM).

`N#CC1(CO)OC(n2cnc3c(N)ncnc32)C(F)C1O` (stereo not shown) [Compound 39] returned a CC50 at 4 days in data set [1] (setting [3]) of 38.3 µg/mL (≈ 130 µM). The CC50 at 4 days in data set [1] (uninfected MT-4 cells) is 36.8 µg/mL (≈ 125 µM). For the same compound, in data set [2], the “Solubility in DMSO” value is “DMSO-soluble” and the Solubility in water result is “water-insoluble”. Also, the IC50 in the data set with HIV-1 IIIB (setting [4]) turned out to be 1490 ng/mL (≈ 5.06 µM).

Compound `N#CC1(CO)OC(n2cc(F)c3c(O)ncnc32)C(F)C1O` (stereo not shown) [Compound 46] registered a CC50 at 4 days in data set [1] (setting [3]) of 48.5 µg/mL (≈ 155 µM). This compound yielded a CC50 at 4 days in data set [1] (uninfected MT-4 cells) of 55.4 µg/mL (≈ 177 µM). In data set [2], the “Solubility in DMSO” value is on record as “DMSO-soluble” and the Solubility in water entry is listed as “water-insoluble”. Besides, the IC50 with HIV-1 IIIB (setting [4]) amounted to 131 ng/mL (≈ 0.42 µM).

In data set [1] (setting [3]), `[N-]=[N+]=NC1(CO)OC(n2cc(F)c3c(N)ncnc32)C(F)C1O` (stereo not shown) [Compound 50] came in with a CC50 at 4 days of 28.3 µg/mL (≈ 86.5 µM). Besides, the CC50 at 4 days in data set [1] (uninfected MT-4 cells) was 27.9 µg/mL (≈ 85.3 µM). Also, in data set [2], the “Solubility in DMSO” value was “DMSO-soluble” and the Solubility in water result is on record as “water-insoluble”. Besides, the IC50 in the data set on HIV-1 IIIB (setting [4]) was 2300 ng/mL (≈ 7.03 µM).

In turn, `C#CC1(CO)OC(n2cc(F)c3c(N)ncnc32)C(F)C1O` (stereo not shown) [Compound 52] showed a CC50 at 4 days in data set [1] (setting [3]) of 41.3 µg/mL (≈ 133 µM). In data set [1] (uninfected MT-4 cells), this compound registered a cytotoxic concentration (CC50) at 4 days of 38.6 µg/mL (≈ 124 µM). For the same compound, in data set [2], the “Solubility in DMSO” value is “DMSO-soluble” and the Solubility in water result was “water-insoluble”. Further, in the data set with HIV-1 IIIB (setting [4]), the IC50 was found to be 133 ng/mL (≈ 0.429 µM).

Turning to `Cc1ccnc2c1NC(=O)c1cccnc1N2C1CC1` [NVP, Nevirapine, reference compound], the CC50 at 4 days in data set [1] (setting [3]) and in data set [1] (uninfected MT-4 cells) was above 12.5 µg/mL each time. For the same compound, in the data set with HIV-1 IIIB (setting [4]), the IC50 was 3.64 ng/mL (≈ 0.0137 µM).
